Results on 2 molecules are retold here after patent publication US20210169690A1, “Self-Retaining Implantable Drug Delivery Device” (GoldenBiotech, LLC, priority 2019, published 2021).

Holding throughout (format): physicochemical
The nature of data set [1]: Visual examination of physical appearance and mixing of drug-loaded silicone polymer matrix test samples. An excerpt:
To test the loading capacity of a silicone elastomer polymer matrix for a prostaglandin analogue, polymer matrix with different amounts and types of a prostaglandin analogue were made and the physical and mechanical properties of the resulting polymerized drug-loaded matrix were characterized (Tables 1-3). These polymer matrix test samples were made by mixing together a prostaglandin analogue, a liquid cyclic vinyl siloxane elastomer, a crosslinker, and a catalyst using a high-speed mixer and then heated the capped container at 70° C. for 24 hours to cure the mixture. A filler, such as a fumed silica, was also used to provide sufficient mechanical strength to the polymerized matrix. In addition, an inhibitor was used to slow the crosslinking reaction to a workable rate. The resulting thin-disc-shaped drug-loaded polymer matrix was allowed to cool to room temperature and then placed in 4° C. for 24 hours to increase stiffness of the material. The physical appearance of each drug-loaded polymer matrix test sample was examined visually and its mechanical properties analyzed using a durometer.

Data set [2] in a line: Modified Higuchi plot (2A versus Q^2/T). How it is done:
Travoprost and Latanoprost are oily liquids at room temperature whereas Bimatoprost is a solid at room temperature. To determine whether the liquid versus solid phase of these drugs affects their release from the silicone polymer matrix, data was analyzed using an alternative plot based on the Higuchi equation where twice the drug loading value (2A) is plotted on the […] and the average slope of the plot of cumulative drug released squared versus time in hours (Q^2/T) is plotted on the […].

The nature of data set [3]: Higuchi equation analysis of drug release data. The protocol:
In order to ascertain whether the mechanism of drug release was based on diffusion, data obtained from various coated silicone polymer matrices were analyzed using the Higuchi equation. This analysis determined the linearity between the cumulative amount of drug released and the square root of time (SQRT). […] As exemplified FIG. 10, data is plotted as the square root of time taken on the x-axis and the cumulative percentage of drug release on the y-axis.

A short description of data set [4]: Korsmeyer-Peppas analysis of drug release data. The note with it: for Average n Values, Korsmeyer-Peppas Analysis, Mean: Mean over drug loadings. How it is done:
To confirm the results obtained based on the Higuchi equation analysis, the data above was also analyzed using the Korsmeyer-Peppas plot, which evaluates the mechanism of drug release by plotting the log of percent drug released over the log time in hours. If n equals 0.45, then Fickian diffusion is indicated for a cylinder (0.42 for cylinder of low aspect ratio). […] As exemplified FIG. 11, data is plotted as the log of cumulative percent drug released on the y-axis and the log time in hours on the x-axis.

Data set [5] is described as follows: Chemical stability of prostaglandin analogues in PBS, RPHPLC. The following applies: PBS at pH 4, 7 and 10; 4° C., 33° C. and 50° C. The protocol: The chemical stability of prostaglandin analogues was also examined. In these experiments, a prostaglandin analogue was incubated in phospho-buffered saline (PBS) at pH 4, 7 and 10 and at 4° C., 33° C. and 50° C. representing long term storage, eye temperature and accelerate temperature conditions respectively. Analyses were performed by RPHPLC as described in Example 2, noting any hydrolysis products formed. […] This stability is most likely due to the amide linkage in Bimatoprost which is much more hydrolytically stable than the ester linkage in Latanoprost and Travoprost.

Data set [6] in a line: In vitro drug release from silicone polymer matrix test samples in PBS pH 7.4 at 37° C., RPHPLC. The following applies: for Daily Release Rate: 25% Latanoprost matrix plug, PTFE Thread Seal Tape coat, two 18G depot channels. The protocol:
To test the controlled release properties of the disclosed drug-loaded silicone polymer matrices, the effects of a coating were examined. In these experiments, test samples were made as described in Example 1 to produce thin-disc-shaped drug-loaded polymer matrix. From this material, test samples were prepared by 1) cutting out rectangular polygons of about 3 mm length, about 1 mm width and about 1 mm height were cut from polymerized drug-loaded material; or 2) cutting out cylindrical plugs of about 3 mm length and having a diameter of about 0.5 mm to about 1 mm. The weight of the test samples were in the range about 0.1 mg to about 4 mg.
Certain of these cut test samples were then coated using one of three procedures. Cut test samples were coated with a polymer like poly(p-xylylene) (PARYLENE) to a thickness of about 0.10 μm to about 0.95 μm using a vapor phase deposition procedure. Similarly, cut test samples were coated a metal like titanium to a thickness of about 0.10 μm to about 0.95 μm using a vapor phase deposition procedure. Alternatively, cut test samples were physically wrapped with a tape like polytetrafluoroethylene tape and sealed using cyanoacrylate adhesive.
The presence of opening in a coated test sample was also examined. In these experiments, coated test samples were punctured to produce opening through the coating layer. From one to four opening were made using the tip of an 18G, 23G, 27G or 31G needle. Two types of opening were produced 1) surface pores which created openings only through the coating layer but left the polymer matrix intact; and 2) depot channels which created a tunnel through the entire coated test sample from one end to the other end.
To examine the drug release properties of a test sample, each sample was placed in 2 mL Eppendorf tube containing 1.5 mL of Phosphate Buffered Saline, pH 7.4 (PBS). These tubes were slowly rocked at 37° C. in an incubator. At given time points the PBS was completely removed from the tube and refilled with fresh PBS. An aliquot of the removed PBS was then analyzed by reversed phase HPLC (RPHPLC) to determine the amount of drug released from the test sample during the incubation period. In these experiments, a 10 μL injection of the test sample aliquot was run on an Agilent 1260 Infinity in a reverse phase isocratic mode using UV detection at 210 nm. The column was a Hypersil GOLD Phenyl column, (Dim. (mm) 250×4.6) and the mobile phase was a 1:1 mixture of acetonitrile to aqueous buffer (comprising HPLC grade water mixed with 5 mM ammonium acetate and 0.02% formic acid). The flow rate was 1.2 mL/min and column temperature was 22° C. Peak detection and quantitation was determined by establishing a calibration curve using known amounts of each drug tested and the amount of drug present in the test sample aliquot interpolated from this calibration curve using ChemStation software.

On to `CCNC(=O)CCC/C=C\C[C@@H]1[C@@H](/C=C/[C@@H](O)CCc2ccccc2)[C@H](O)C[C@@H]1O` [Bimatoprost], for which, in data set [1] (15% or 20% Bimatoprost test samples), the “mixing in the liquid siloxane elastomer” value is “difficult to mix in the liquid siloxane elastomer”. Besides, the “physical examination of test sample” value in data set [1] (20% Bimatoprost test sample) was “brittle and contained clumps of unincorporated components from the mixture”. The “average slope of cumulative drug released squared versus time in hours (Q^2/T)” value is reported as 0.204 ± 0.035 in data set [2] (Loading (A %) 1.0), 0.387 ± 0.009 in data set [2] (Loading (A %) 2.5), 1.680 ± 0.232 in data set [2] (Loading (A %) 5.0) and 2.327 ± 0.252 in data set [2] (Loading (A %) 10). Besides, the “relationship of Q^2/T to 2A in modified Higuchi plot” value in data set [2] (Table 10, FIG. 12 and FIG. 13) is “linear relationship”. Moreover, the “Average Linear Regression r^2 Value, Higuchi Equation Analysis” value in data set [3] (Drug Loading 1%) is 0.992; in data set [3] (Drug Loading 2.5%), 0.995; in data set [3] (Drug Loading 5%), 0.997; in data set [3] (Drug Loading 10%) it was 0.988; in data set [3] (Drug Loading 15%), 0.994; in data set [3] (Drug Loading 20%) it was 0.972. Besides, the “Average n Values, Korsmeyer-Peppas Analysis” value was 0.326± in data set [4] (Drug Loading 1%); 0.372± in data set [4] (Drug Loading 2.5%); 0.411± in data set [4] (Drug Loading 5%); 0.377± in data set [4] (Drug Loading 10%); 0.380± in data set [4] (Drug Loading 15%); 0.601± in data set [4] (Drug Loading 20%). In addition, the “Average n Values, Korsmeyer-Peppas Analysis, Mean” value in data set [4] is recorded as 0.37 ± 0.08. Also, the “chemical stability (hydrolysis products)” value in data set [5] is recorded as “excellent stability with Bimatoprost being the most stable”.
On to `CC(C)OC(=O)CCC/C=C\C[C@@H]1[C@@H](CC[C@@H](O)CCc2ccccc2)[C@H](O)C[C@@H]1O` [Latanoprost], for which, in data set [1] (25% Latanoprost test sample), the “physical examination of test sample” value was “exhibited more elasticity but had a surface with tacky attributes and a consistency that was not fully homogeneous”. Besides, the “Average Linear Regression r^2 Value, Higuchi Equation Analysis” value turned out to be 0.964 in data set [3] (Drug Loading 5%), 0.983 in data set [3] (Drug Loading 10%), 0.990 in data set [3] (Drug Loading 15%) and 0.990 in data set [3] (Drug Loading 20%). For the same molecule, the “Average n Values, Korsmeyer-Peppas Analysis” value in data set [4] (Drug Loading 5%) was 0.504±; in data set [4] (Drug Loading 10%) it was 0.501±; in data set [4] (Drug Loading 15%), 0.712±; in data set [4] (Drug Loading 20%) it was 1.200±. Moreover, the “Average n Values, Korsmeyer-Peppas Analysis, Mean” value in data set [4] worked out at 0.57 ± 0.16. Further, the “Daily Release Rate” value came to 3.86 µg/day in data set [6] (day 7); 5.68 µg/day in data set [6] (day 19); 3.60 µg/day in data set [6] (day 29); 5.11 µg/day in data set [6] (day 64); 8.13 µg/day in data set [6] (day 71); 2.82 µg/day in data set [6] (day 106). Besides, the “Daily Release Rate” value in data set [6] (day 122) stood at 1.18 µg/day. Further, the “period of near zero order release” value in data set [6] (coated test sample, 25% Latanoprost, four surface pores) came out at 42 days. Further, the “total amount of drug released” value in data set [6] (coated test sample, 25% Latanoprost, four surface pores, as of 140 days) came to 2.2%. Also, the release profile entry in data set [6] (uncoated silicone polymer matrix loaded with 10% Latanoprost, FIG. 5) is “rapid release of the drug over the first five days, which then tapers off and by day 12 shows no further significant release of Latanoprost”.
